Reference: publication PMC3517478 (BMC Neurology, 2012)
Changes are numbered by the printed parent chain.

Legend:
Test in all cases: Whole-cell patch-clamp, positive allosteric modulation of glycine (EC20) induced currents
Type in all cases: cell-based
[1] = target: T1, human α1R271L-GlyR expressed in HEK 293 cells (Homo sapiens, UniProt P23415, R299L); design: expressed in transfected cells; host or cells: HEK 293 (transient, electroporation; pcDNA1amp vector); conditions: R271L
T1 sequence (P23415 29-457 R299L): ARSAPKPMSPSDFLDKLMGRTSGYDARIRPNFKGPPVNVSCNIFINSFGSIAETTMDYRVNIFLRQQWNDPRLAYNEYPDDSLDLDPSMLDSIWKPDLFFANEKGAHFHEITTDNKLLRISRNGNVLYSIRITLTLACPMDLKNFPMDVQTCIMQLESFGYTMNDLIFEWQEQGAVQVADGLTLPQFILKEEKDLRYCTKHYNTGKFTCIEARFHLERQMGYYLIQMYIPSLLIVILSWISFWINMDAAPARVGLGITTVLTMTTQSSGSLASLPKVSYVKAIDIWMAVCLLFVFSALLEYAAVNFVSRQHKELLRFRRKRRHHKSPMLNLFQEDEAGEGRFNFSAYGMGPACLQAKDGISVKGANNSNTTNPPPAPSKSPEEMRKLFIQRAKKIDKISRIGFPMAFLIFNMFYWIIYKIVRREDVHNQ
Procedure: (§1) Drug-containing vials were vigorously vortexed for 30min.
(§2) A new cell was used for each protocol and at least four different experiments were performed for each condition. The concentration of the diluent EtOH corresponding to the highest drug concentration used was 17150 μM.
(§3) Currents were filtered at 2 kHz.
(§4) Currents were normalized to their own maximum response.

[2] = target: T2, human α1R271Q-GlyR expressed in HEK 293 cells (Homo sapiens, UniProt P23415, R299Q); design: expressed in transfected cells; host or cells: HEK 293 (transient, electroporation; pcDNA1amp vector); conditions: R271Q
T2 sequence (P23415 29-457 R299Q): T1 sequence (P23415 29-457 R299L) with L271Q
Procedure: as §1, §2, §3, §4

[3] = target: T3, human α1R271K-GlyR expressed in HEK 293 cells (Homo sapiens, UniProt P23415, R299K); design: expressed in transfected cells; host or cells: HEK 293 (transient, electroporation; pcDNA1amp vector); conditions: R271K
T3 sequence (P23415 29-457 R299K): T1 sequence (P23415 29-457 R299L) with L271K
Procedure: as §1, §2, §3, §4

[4] = target: T4, human α1-GlyR (WT) expressed in HEK 293 cells (Homo sapiens, UniProt P23415); design: expressed in transfected cells; host or cells: HEK 293 (transient, electroporation; pCIS2 vector; co-transfected EGFP as a separate marker)
T4 sequence (P23415 29-457): T1 sequence (P23415 29-457 R299L) with L271R
Procedure: as §1, §2, §3, §4

4-chloro-2,6-dimethylphenol [4-chloropropofol]
positive allosteric modulation nH ± SEM ([1]; EC20 glycine 30 mM): 0.7 ± 0.3 | EC50 ([1]; co-applied with sub-saturating (EC20) glycine 30 mM, read-out: positive allosteric modulation EC50 ± SEM): 100 ± 200 nM | positive allosteric modulation, potentiation [% of peak current amplitude] ± SEM ([1]; maximal positive allosteric modulation, EC20 glycine 30 mM): 153 ± 46% | positive allosteric modulation nH ± SEM ([2]; EC20 glycine 10 mM): 0.9 ± 1.3 | EC50 ([2]; co-applied with sub-saturating (EC20) glycine 10 mM, read-out: positive allosteric modulation EC50 ± SEM): 1300 ± 600 nM | positive allosteric modulation, potentiation [% of peak current amplitude] ± SEM ([2]; maximal positive allosteric modulation, EC20 glycine 10 mM): 260 ± 52% | positive allosteric modulation nH ± SEM ([3]; EC20 glycine 100 μM): 0.3 ± 0.1 | EC50 ([3]; co-applied with sub-saturating (EC20) glycine 100 μM, read-out: positive allosteric modulation EC50 ± SEM): 6000 ± 2300 nM | positive allosteric modulation, potentiation [% of peak current amplitude] ± SEM ([3]; maximal positive allosteric modulation, EC20 glycine 100 μM): 231 ± 174% | increased potency to positively modulate glycine induced chloride currents in comparison to propofol ([4]; WT glycine receptors, propofol value from ref 21): more than 1000 fold | positive allosteric modulation nH ± SEM ([4]; WT, EC20 glycine 20 μM): 2.0 ± 2.8 | EC50 ([4]; WT, co-applied with sub-saturating (EC20) glycine 20 μM, read-out: positive allosteric modulation EC50 ± SEM): 0.08 ± 0.02 nM | positive allosteric modulation, potentiation [% of peak current amplitude] ± SEM ([4]; WT, maximal positive allosteric modulation, EC20 glycine 20 μM): 269 ± 88%
